{"source": "patent US7056713B1", "about": "“Urate oxidase” (Duke University, priority 1998, dated 2006)", "key": {"[1]": {"test_system": "recombinant pig-baboon chimeric uricase (PBC uricase; aa 1–225 of porcine uricase (SEQ ID NO:7) and aa 226–304 of baboon uricase (SEQ ID NO:6)), unmodified …", "assay": "KM of unmodified recombinant PBC uricase (studies not shown)", "format": "biochemical, pig-baboon chimera", "description": "(§1) In this PEGylation reaction all of the uricase subunits were modified (FIG. 1, lane 7). In studies not shown, the PEGylated enzyme had similar kinetic properties to unmodified PBC uricase (KM 10–20 μM). […] The PEGylated enzyme could also be lyophilized and then reconstituted in PBS, pH 7.2, with minimal loss of activity. In other experiments, we compared the activities of this preparation of PEG-PBC uricase with the A. flavus uricase clinical preparation. […] However, in PBS, pH 7.2, the PEG-PBC and unmodified fungal enzymes differed in uricase activity by <2 fold."}, "[2]": {"biological_target": "T1, Aspergillus flavus uricase, clinical preparation (unmodified fungal enzyme) (Aspergillus flavus, UniProt Q00511)", "T1 sequence (Q00511 2-302 limits assumed)": "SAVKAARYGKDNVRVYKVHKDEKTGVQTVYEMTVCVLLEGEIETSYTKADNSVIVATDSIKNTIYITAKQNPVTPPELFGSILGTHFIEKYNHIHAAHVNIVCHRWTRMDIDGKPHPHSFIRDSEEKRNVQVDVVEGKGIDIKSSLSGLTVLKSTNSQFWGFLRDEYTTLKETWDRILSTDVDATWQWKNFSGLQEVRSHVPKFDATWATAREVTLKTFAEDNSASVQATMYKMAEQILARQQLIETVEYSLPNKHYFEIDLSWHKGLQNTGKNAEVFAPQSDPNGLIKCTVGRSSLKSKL", "assay": "Kinetic comparison of A. flavus uricase clinical preparation with PEG-PBC uricase", "format": "biochemical", "conditions": "pH 8.6 in borate buffer; versus PEG-PBC uricase", "description": "as §1"}, "[3]": {"test_system": "PEGylated recombinant pig-baboon chimeric uricase (PEG-PBC uricase; PBC uricase SEQ ID NO:2)", "assay": "KM of PEGylated recombinant PBC uricase (studies not shown)", "format": "biochemical, pig-baboon chimera", "conditions": "similar kinetic properties to unmodified", "description": "100 mg of concentrated Sepahacryl S-200 PBC uricase (5 mg/ml, 2.9 μmol enzyme; 84.1 μmol lysine) in 0.1 M Na2CO3, pH 10.2 was allowed to react with a 2-fold excess (mol of PEG:mol uricase lysines) of an activated form of PEG at 4° for 60 min. The PEGylated uricase was freed from any unreacted or hydrolyzed PEG by tangential flow diafiltration. In this step the reaction was diluted 1:10 in 0.1 M Na2CO3, pH 10.2 and diafiltered vs. 3.5 vol 0.1 M Na2CO3, pH 10.2, then vs. 3.5 vol 0.05 M sodium phosphate, 0.15 M NaCl, pH 7.2. The filter-sterilized enzyme was stable at 4° for at least one month.\nIn this PEGylation reaction all of the uricase subunits were modified (FIG. 1, lane 7). In studies not shown, the PEGylated enzyme had similar kinetic properties to unmodified PBC uricase (KM 10–20 μM). Importantly, the modified enzyme was much more soluble than the unmodified enzyme at physiologic pH (>5 mg/ml in PBS vs. <1 mg/ml). The PEGylated enzyme could also be lyophilized and then reconstituted in PBS, pH 7.2, with minimal loss of activity. In other experiments, we compared the activities of this preparation of PEG-PBC uricase with the A. flavus uricase clinical preparation. […] However, in PBS, pH 7.2, the PEG-PBC and unmodified fungal enzymes differed in uricase activity by <2 fold."}, "[4]": {"conditions": "human, in vivo; cited from earlier work"}, "[5]": {"conditions": "compared with uric acid; background statement; cited from earlier work"}}, "data": [{"molecule": "O=c1[nH]c(=O)c2[nH]c(=O)[nH]c2[nH]1", "note": "[uric acid]", "values": [{"measurement": "Km", "setting": "[1]", "value": "10 to 20", "unit": "µM"}, {"measurement": "KM, fold higher than PEG-PBC uricase", "setting": "[2]", "value": 2, "unit": "fold"}, {"measurement": "Vmax, fold higher than PEG-PBC uricase", "setting": "[2]", "value": "10–14 fold"}, {"measurement": "Km", "setting": "[3]", "value": "10 to 20", "unit": "µM"}]}, {"molecule": "Oc1ncnc2[nH]ncc12", "note": "[allopurinol]", "values": [{"measurement": "patients who develop allergic reactions", "setting": "[4]", "value": "~2", "unit": "%"}, {"measurement": "severe hypersensitivity syndrome", "setting": "[4]", "value": "~0.4", "unit": "%"}]}, {"molecule": "NC(=O)NC1NC(=O)NC1=O", "note": "(stereo not shown) [allantoin]", "values": [{"measurement": "solubility relative to uric acid (times more soluble)", "setting": "[5]", "value": "80–100 times"}]}]}
